Paper PMC3462775 (PLoS ONE, 2012)
Values after ≈ are worked out from the molar mass of the structure shown. Bridge positions count the residues as written; N and C are the ends. Square brackets hold non-standard residues; d marks the D form. Peptide text beside a SMILES is read from it. I, II: the chains in the order shown. βAla = NCCC(=O)O

How the values were obtained:
[1] = system: P. aeruginosa ATCC 27853 biofilm; assay type: cell-based, Pseudomonas aeruginosa; details: ATCC 27853, 20 h
Experimental: Biofilm formation was performed by adapting the procedure described in [39] using the Calgary Biofilm Device (Innovotech, Innovotech Inc. Edmonton, Canada). Briefly, 96-well plates containing the bacterial inoculum were sealed with lids bearing 96 pegs on which the biofilm could build up. The plates were placed in an orbital incubator at 35°C (for P. aeruginosa and E. coli) or 37°C (for S. aureus) for 20 h under agitation at 125 rpm. Once biofilms formed, the lids were removed from the plates and the pegs were rinsed twice with phosphate buffered saline (PBS) to remove planktonic cells. The peg-lid was then transferred to a 96-well challenge microtiter plate, each well containing 200 µl of a twofold serial dilution of each peptide in LB medium. The challenge plate was incubated at 37°C for 2 hours. Peptide activity on pre-formed biofilm was evaluated by two independent methods: (i) visual observation of bacterial growth and (ii) counting of living bacterial cells after peptide treatment. In the first case, the peg-lid was removed from the challenge plate, rinsed with PBS and used to cover a 96-well recovery microtiter plate, each well containing 200 µl LB medium. The recovery plate was sealed, incubated at 37°C for 4 hours and then observed for any visible growth of bacteria detached from the peptide-treated biofilm. […]

S.aureus ATCC 29213 = assay: MIC, standard microdilution assay; assay type: cell-based, Staphylococcus aureus; details: Reference strain, wild type; CLSI microdilution, cation-supplemented Mueller-Hinton broth, 5x10^4 CFU/well, 18–20 h at 37°C, triplicate
Experimental: (§1) MICs were determined using a standard microdilution assay as recommended by the Clinical and Laboratory Standards Institute. Assays were performed in triplicate using cation-supplemented Mueller-Hinton (MH) broth (Becton Dickinson, Franklin Lakes, NJ, USA) and a bacterial inoculum of 5x10^4 CFU/well, in a final volume of 100 µl. The tested concentrations ranged from 0.1 µM to 24 µM for both peptides. Results were recorded after 18–20 h of incubation at 37°C.

K.pneumoniae 7086042 = assay type: cell-based, Klebsiella pneumoniae
Experimental: as §1

E.coli ATCC 25922 = assay: MIC, standard microdilution assay; assay type: cell-based, Escherichia coli; details: Reference strain, wild type; CLSI microdilution, cation-supplemented Mueller-Hinton broth, 5x10^4 CFU/well, 18–20 h at 37°C, triplicate
Experimental: as §1

E.coli W03BG0025 = assay type: cell-based, Escherichia coli
Experimental: as §1

P.aeruginosa ATCC 27853 = assay: MIC, standard microdilution assay; assay type: cell-based, Pseudomonas aeruginosa; details: Reference strain, wild type; CLSI microdilution, cation-supplemented Mueller-Hinton broth, 5x10^4 CFU/well, 18–20 h at 37°C, triplicate
Experimental: as §1

[2] = system: S. aureus ATCC 25923 biofilm; assay type: cell-based, Staphylococcus aureus; details: ATCC 25923, 2 h
Experimental: Biofilm formation was performed by adapting the procedure described in [39] using the Calgary Biofilm Device (Innovotech, Innovotech Inc. Edmonton, Canada). Briefly, 96-well plates containing the bacterial inoculum were sealed with lids bearing 96 pegs on which the biofilm could build up. The plates were placed in an orbital incubator at 35°C (for P. aeruginosa and E. coli) or 37°C (for S. aureus) for 20 h under agitation at 125 rpm. Once biofilms formed, the lids were removed from the plates and the pegs were rinsed twice with phosphate buffered saline (PBS) to remove planktonic cells. The peg-lid was then transferred to a 96-well challenge microtiter plate, each well containing 200 µl of a twofold serial dilution of each peptide in LB medium. The challenge plate was incubated at 37°C for 2 hours. Peptide activity on pre-formed biofilm was evaluated by two independent methods: (i) visual observation of bacterial growth and (ii) counting of living bacterial cells after peptide treatment. In the first case, the peg-lid was removed from the challenge plate, rinsed with PBS and used to cover a 96-well recovery microtiter plate, each well containing 200 µl LB medium. […] Colony forming units (CFU) were expressed as percentage with respect to control (peptide-untreated biofilms). […]

[3] = Calcein release from liposomes mimicking the membrane of S. aureus; details: CL/PG 4∶6 liposomes, 50 µM lipid, 10 min at 20°C, peptide 0,5 to 15 µM, fluorescence 490/517 nm, three independent experiments
Text: To investigate interaction of peptides M33-D and M33-L with the bacterial membrane, including possible perturbation, we used vesicles with two lipid compositions to mimic the membrane of S. aureus (CL/PG, 4∶6 mol/mol) and E. coli (PE/PG, 7∶3 mol/mol). […] The peptide-induced effect was dose-dependent in both vesicle lipid compositions. […] No significant differences in the effects induced by M33-D and M33-L were evident, although the D peptide seemed slightly more efficient towards CL/PG liposomes at doses above 8 µM. […] The greater perturbing effect of both forms of M33 on PE/PG vesicles, compared to vesicles containing cardiolipin, was evident.
Calcein-loaded liposomes of two different composition (PE/PG, 7∶3 mol/mol and CL/PG, 4∶6 mol/mol) were prepared as follows. […] Lipid concentration of vesicles was measured by the method of Stewart and the final concentration used for all measurements was 50 µM. Calcein fluorescence in the vesicles is self-quenched and leakage was measured by relief of quenching; the measurements were carried out at 517 nm, exciting at 490 nm, with a Perkin-Elmer LS 50B spectrofluorimeter. […] Leakage was calculated by the equation: [drawing 1] where F and Ft are fluorescence […] addition of detergent and F0 the fluorescence of intact vesicles.

For `CC[C@@H](C)[C@@H](NC(=O)[C@@H](CCCCN)NC(=O)[C@H](N)CCCCN)C(=O)N[C@H](CCCNC(=N)N)C(=O)N[C@@H](C(=O)N[C@H](CCCNC(=N)N)C(=O)N[C@H](CC(C)C)C(=O)N[C@H](CO)C(=O)N[C@H](C)C(=O)NCCCC[C@H](NC(=O)[C@@H](C)NC(=O)[C@@H](CO)NC(=O)[C@@H](CC(C)C)NC(=O)[C@@H](CCCNC(=N)N)NC(=O)[C@H](NC(=O)[C@@H](CCCNC(=N)N)NC(=O)[C@H](NC(=O)[C@@H](CCCCN)NC(=O)[C@H](N)CCCCN)[C@H](C)CC)C(C)C)C(=O)NCCCC[C@H](NC(=O)[C@H](CCCCNC(=O)[C@@H](C)NC(=O)[C@@H](CO)NC(=O)[C@@H](CC(C)C)NC(=O)[C@@H](CCCNC(=N)N)NC(=O)[C@H](NC(=O)[C@@H](CCCNC(=N)N)NC(=O)[C@H](NC(=O)[C@@H](CCCCN)NC(=O)[C@H](N)CCCCN)[C@H](C)CC)C(C)C)NC(=O)[C@@H](C)NC(=O)[C@@H](CO)NC(=O)[C@@H](CC(C)C)NC(=O)[C@@H](CCCNC(=N)N)NC(=O)[C@H](NC(=O)[C@@H](CCCNC(=N)N)NC(=O)[C@H](NC(=O)[C@@H](CCCCN)NC(=O)[C@H](N)CCCCN)[C@H](C)CC)C(C)C)C(=O)NCCC(=O)O)C(C)C` [M33-D] (I: H-[dK][dK][dI][dR][dV][dR][dL][dS][dA]KK[βAla]-OH / II: H-[dK][dK][dI][dR][dV][dR][dL][dS][dA]K / III: H-[dK][dK][dI][dR][dV][dR][dL][dS][dA] / IV: H-[dK][dK][dI][dR][dV][dR][dL][dS][dA]; amide I:10-IV:C, I:11-II:C, II:10-III:C; N-terminus assumed), the “Minimum biofilm eradication concentration (MBEC)” value [1] was 3 µM, the MIC (S.aureus ATCC 29213) was 1.5 µM (≈ 7.02 µg/mL) and the MIC (K.pneumoniae 7086042) was 6 µM (≈ 28.1 µg/mL). For the same compound, the MIC (E.coli ATCC 25922) was 3 µM (≈ 14 µg/mL), the MIC (E.coli W03BG0025) was 3 µM (≈ 14 µg/mL) and the MIC (P.aeruginosa ATCC 27853) was 1.5 µM (≈ 7.02 µg/mL). The “Minimum bactericidal concentration on biofilm (MBCb)” value [2] was 1.5 µM (≈ 7.02 µg/mL) and the “peptide concentration giving maximum calcein release” value [3] was “greater than 10 µM”.

With `CC[C@H](C)[C@H](NC(=O)[C@H](CCCCN)NC(=O)[C@@H](N)CCCCN)C(=O)N[C@@H](CCCNC(=N)N)C(=O)N[C@H](C(=O)N[C@@H](CCCNC(=N)N)C(=O)N[C@@H](CC(C)C)C(=O)N[C@@H](CO)C(=O)N[C@@H](C)C(=O)NCCCC[C@H](NC(=O)[C@H](C)NC(=O)[C@H](CO)NC(=O)[C@H](CC(C)C)NC(=O)[C@H](CCCNC(=N)N)NC(=O)[C@@H](NC(=O)[C@H](CCCNC(=N)N)NC(=O)[C@@H](NC(=O)[C@H](CCCCN)NC(=O)[C@@H](N)CCCCN)[C@@H](C)CC)C(C)C)C(=O)NCCCC[C@H](NC(=O)[C@H](CCCCNC(=O)[C@H](C)NC(=O)[C@H](CO)NC(=O)[C@H](CC(C)C)NC(=O)[C@H](CCCNC(=N)N)NC(=O)[C@@H](NC(=O)[C@H](CCCNC(=N)N)NC(=O)[C@@H](NC(=O)[C@H](CCCCN)NC(=O)[C@@H](N)CCCCN)[C@@H](C)CC)C(C)C)NC(=O)[C@H](C)NC(=O)[C@H](CO)NC(=O)[C@H](CC(C)C)NC(=O)[C@H](CCCNC(=N)N)NC(=O)[C@@H](NC(=O)[C@H](CCCNC(=N)N)NC(=O)[C@@H](NC(=O)[C@H](CCCCN)NC(=O)[C@@H](N)CCCCN)[C@@H](C)CC)C(C)C)C(=O)NCCC(=O)O)C(C)C` [M33-L] (I: H-KKIRVRLSAKK[βAla]-OH / II: H-KKIRVRLSAK / III: H-KKIRVRLSA / IV: H-KKIRVRLSA; amide I:10-IV:C, I:11-II:C, II:10-III:C; N-terminus assumed) the “Minimum biofilm eradication concentration (MBEC)” value [1] was 1.5 µM, the MIC (S.aureus ATCC 29213) was 6 µM (≈ 28.1 µg/mL) and the MIC (K.pneumoniae 7086042) was 3 µM (≈ 14 µg/mL). For the same compound, the MIC (E.coli ATCC 25922) was 3 µM (≈ 14 µg/mL), the MIC (E.coli W03BG0025) was 0.7 µM (≈ 3.28 µg/mL) and the MIC (P.aeruginosa ATCC 27853) was 1.5 µM (≈ 7.02 µg/mL). The “Minimum bactericidal concentration on biofilm (MBCb)” value [2] was 12 µM (≈ 56.2 µg/mL) and the “peptide concentration giving maximum calcein release” value [3] was “greater than 10 µM”.
